Earlier results as cited in publication PMC8491460 (Pharmacology Research & Perspectives, 2021).
Where a name gives a salt, the structure may show the parent alone.

Key:
[1] = system: patients with metastatic melanoma
[2] = system: Colorectal cancer patients; conditions: 8.8 or 1.2 g per day oral, admission to 10th postoperative day
[3] = system: patients with advanced RCC; conditions: IFNα 3–6 MIU s.c. thrice/week, 800 mg cimetidine, 10 mg meloxicam, 4 mg candesartan or perindopril
[4] = system: breast cancer models E0771 and 4T1; conditions: 8 mg/kg in drinking water; E0771 and 4T1, respectively
[5] = system: human 1205Lu melanoma tumor; conditions: 1 mg/kg daily s.c. for 30 days
murine EL4 lymphomas = conditions: 75 mg/kg i.p. three times a week for 2 weeks
[6] = system: CD11b^+Gr1^+ immature myeloid cells; conditions: 0.8 mg/kg i.p. per day for 20 days
[7] = system: patients with high‐grade non‐Hodgkin lymphoma; conditions: 3 MIU IFNα, 1.5 mg/kg IL‐2, and 0.5 mg histamine s.c. 1–2 times daily, 5 days a week
[8] = system: patients with metastatic RCC
BN‐175 tumors = conditions: 40 µg melphalan, 1 mg histamine, and 50 µg IL‐2 in 5 ml perfusate
[9] = clinical trials, adjuvant to IL‐2 immunotherapy
[10] = system: patients with moderate to severe atopic dermatitis; conditions: 30 mg administered orally for 8 weeks
[11] = system: uncontrolled, eosinophilic asthma; conditions: 30 mg per day for 24 weeks
[12] = system: patients with moderate‐to‐severe psoriasis; conditions: 30 and 60 mg per day
rheumatoid arthritis [13] = conditions: 100 mg once daily orally for 12 weeks, phase IIa
rheumatoid arthritis [14] = conditions: phase IIb trial
[15] = histamine 75 µg/mouse i.p., 100–240 µg/mouse of each antibody
[16] = histamine 1500 µg/mouse with anti‐PD‐1/anti‐PD‐L1
[17] = histamine and anti‐PD‐1/anti‐PD‐L1

Molecule: CN(C)/N=N/c1[nH]cnc1C(N)=O [Dacarbazine]
- overall response rates [1]: 16%

Molecule: NCCc1c[nH]cn1 [HDC, histamine dihydrochloride]
- ROS production by M4/M5 cells and apoptosis in adjacent NK cells (NK cells): inhibited

Molecule: CN/C(=N/CCSCc1nc[nH]c1C)NC#N [cimetidine]
- CD19^+ B cells in blood samples [2]: elevated levels
- responses [3]: favorable responses

Molecule: IL‐2: interleukin‐2 immunotherapeutic cytokine
- overall response rates [1]: 16%

Molecule: CNC(=C[N+](=O)[O-])NCCSCc1ccc(CN(C)C)o1 [ranitidine]
- primary tumor growth and metastasis [4]: consistently reduced

Molecule: NCCc1c[nH]cn1 [histamine, 2‐(4‐imidazolyl)‐ethylamine]
- neutrophil‐to‐lymphocyte ratio infiltrate [5]: decreased
- tumor growth and neovascular formation [5]: reduced
- tumor‐infiltrating DCs (murine EL4 lymphomas; WT mice): increased
- growth of murine EL4 lymphomas (murine EL4 lymphomas; WT mice but not NOX2‐deficient mice): reduced
- ability of immature myeloid cells to support the growth of tumor allografts [6]: suppressed
- differentiation of CD11b^+Gr1^+ immature myeloid cells ([6]; through H1 receptor and H2 receptor): induced their terminal differentiation into monocytes and neutrophils
- accumulation and immunosuppressive features of MDSCs (EL4 lymphoma; 75 µg/mouse i.p. three times a week): diminished
- tumor growth (EL4 lymphoma; 75 µg/mouse i.p. three times a week starting 1 day before tumor inoculation): diminished tumor growth
- expression of PD‐L1 on MDSCs or PD‐1 on CD8^+ T cells (EL4 lymphoma; EL4 tumor‐bearing mice, histamine): did not alter
- anti‐tumor efficacy of immune checkpoint blockade with anti‐PD‐1/anti‐PD‐L1 (EL4 lymphoma; [15]): improved
- fraction of CD8^+ T cells displaying an effector phenotype (EL4 lymphoma; [16]): slightly increased
- intra‐tumoral proportion of MDSCs, or T and NK cells (EL4 lymphoma; [16]): did not affect
- anti‐tumor efficacy of immune checkpoint blockade with anti‐PD‐1/anti‐PD‐L1 (MC‐38 colon carcinoma; [15]): improved
- MC‐38 tumor growth (MC‐38 colon carcinoma; histamine 1500 µg/mouse i.p. 3 times a week and anti‐PD‐1/anti‐PD‐L1): strongly reduced
- fraction of CD8^+ T cells with an effector phenotype (MC‐38 colon carcinoma; [17]): raised significantly
- fraction of intra‐tumoral CD8^+ T cells (MC‐38 colon carcinoma; [17]): tending to increase
- intra‐tumoral NK cells (MC‐38 colon carcinoma; [17]): decreased
- percentage of intra‐tumoral CD4^+ T cells (MC‐38 colon carcinoma; [17]): not altered
- frequency of cytokine‐producing T cells and NK‐cell‐mediated cytotoxicity [7]: significant increases
- tolerability ([8]; 1 mg HDC s.c. b.i.d. with IFNα 3 MIU and IL‐2 2.4 MIU/m^2): well tolerated
- TILs, blood leukocyte count, f‐chain expression, or cytotoxicity ([8]; similar treatment scheme): did not influence
- response (BN‐175 tumors): no improved response
- tolerability [9]: generally well tolerated

Molecule: CN[C@@H]1CCN(c2cc(NCC3CC3)nc(N)n2)C1 [adriforant]
- eczema and severity [10]: improved eczema and severity
- tolerability [10]: well tolerated

Molecule: Cc1cc(C)c2nc(-c3cnc(NCCCC4CCN(C)CC4)nc3C)[nH]c2c1 [toreforant]
- improvement of uncontrolled, eosinophilic asthma [11]: failed to improve
- response versus placebo [12]: greater response than placebo
- signs and symptoms of rheumatoid arthritis (rheumatoid arthritis [13]): reduced
- confirmation of the reduction of signs and symptoms (rheumatoid arthritis [14]): could not be confirmed
